In ChEMBL document CHEMBL1151398, “New taxanes from Taxus brevifolia” (1982):

Key:
Astrocyte = test: Astrocyte reversal activity in astrocytes; assay type: functional; conditions: read-out: ED50 (the source's name)
KB = test: Cytotoxicity against human KB cells; assay type: functional; set-up: concentration or dose not given beside the values

Structure (SMILES)	EC50 (Astrocyte) [µg/mL]	Activity (KB) [%]
CC(=O)O[C@@]12CO[C@@H]1C[C@H](O)[C@@]1(C)C(=O)[C@H](O)C3=C(C)[C@@H](O)C[C@@](O)([C@@H](OC(=O)c4ccccc4)[C@H]21)C3(C)C	1	16
CC(=O)O[C@H]1C(=O)[C@]2(C)[C@@H](OC(C)=O)C[C@H]3OC[C@@]3(OC(C)=O)[C@H]2[C@H](OC(=O)c2ccccc2)[C@]2(O)C[C@H](OC(=O)[C@H](OC(C)=O)[C@@H](NC(=O)c3ccccc3)c3ccccc3)C(C)=C1C2(C)C	0.03	16
CC(=O)O[C@H]1C(=O)[C@@]2(C)[C@H]([C@H](OC(=O)c3ccccc3)[C@]3(O)C[C@H](OC(=O)[C@H](O)[C@@H](NC(=O)c4ccccc4)c4ccccc4)C(C)=C1C3(C)C)[C@]1(OC(C)=O)CO[C@@H]1C[C@@H]2O [PACLITAXEL]	< 0.01	31

Second part, led by results:

EC50 (Astrocyte) [µg/mL]	Structure (SMILES)	Activity (KB) [%]
< 0.01	CC(=O)O[C@H]1C[C@H]2OC[C@@]2(OC(C)=O)[C@H]2[C@H](OC(=O)c3ccccc3)[C@]3(O)C[C@H](OC(=O)[C@H](OC(C)=O)[C@@H](NC(=O)c4ccccc4)c4ccccc4)C(C)=C([C@@H](O)C(=O)[C@]12C)C3(C)C	16
28	C=C1[C@@H](O)C[C@H](OC(C)=O)[C@@]2(C)[C@@H](OC(C)=O)[C@H](OC(C)=O)C3=C(C)[C@@H](OC(C)=O)C[C@@H]([C@@H](OC(C)=O)[C@H]12)C3(C)C [DECINNAMOYLTAXININE J]	16
